Measurements from US9464064B2, “HCV helicase inhibitors and methods of use thereof” (University of Kansas, priority 2011, dated 2016).
Read-outs that look alike come from different tables or passages of the source.

Legend:
[1] = biological target: T1, E. coli SSB-Cy5-dT15 complex (Escherichia coli, UniProt P0AGE0); experiment: Escherichia coli SSB Cy5-dT15 binding assay (fluorescence polarization); details: for IC50: disruption of Cy5-dT15-SSB complex, read-out: Cy5-dT15-SSB Binding IC50; for inhibition at 100 µM: read-out: SSB % Displaced @ 100 μM; for EC50: read-out: SSB EC50
T1 construct: purchased Promega
How it was run: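 Compounds in DMSO (final 1% for screening, 5% for IC50 determination) added to MOPS pH 7.5 buffer with MgCl2, BSA, Tween 20 and DTT containing 20 nM SSB and 5 nM Cy5-dT15 probe. Displacement followed by polarization at 667 nm after 635 nm excitation.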

[2] = test system: HCV RLuc subgenomic replicon (genotype 1b) in Huh-7.5 cells; experiment: HCV subgenomic replicon assay (Renilla luciferase); type: cell-based, hepatitis C virus
How it was run: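 Huh-7.5 cells stably harbouring the genotype 1b HCV RLuc subgenomic replicon were treated with compound at 10 μM final (0.5% DMSO) for 72 h at 37 °C. Replication was assessed as Renilla luciferase activity in lysates relative to DMSO-treated cells.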

[3] = test system: Huh-7.5 cells; experiment: Cell viability assay ([…]-GLO); type: cell-based, human; details: for Cell viability (% viable): 10 μM compound, triplicate, average ± SD
How it was run: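 Viability was read by luminescence, integrated for 1 second, after 30 min at 23° C. in […]-GLO reagent mixed equally with growth medium. Before lysis, Huh-7.5 cells had received compound for 72 h and were rinsed with PBS.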

[4] = test system: MBHA DNA substrate; experiment: Modified FID assay, SYBR Green I; type: binding; details: for DNA binding (%): SYBR Green I-FID, average (±SD) percent bound at 100 μM; for FID (SG) % Displaced @ 100 μM / EC50: SYBR Green; for EC50: read-out: FID (SG) EC50 (converted)
How it was run: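 Affinity for the MBHA DNA substrate (0.32 μM) estimated by displacement of SYBR Green I (0.68 μM), ethidium bromide omitted. Each compound titrated in triplicate over three independent runs; EC50 from concentration-response fit, reported ± standard deviation.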

[5] = Hepatitis C virus, Huh7.5, 10 μM compound, triplicate, average ± SD, read-out: HCV replication (% Inh.)
[6] = Hepatitis C virus, Huh7.5, 10 μM, read-out: Replicon (% Inhibition @ 10 μM)

T1 sequence (P0AGE0 2-178, one chain of several): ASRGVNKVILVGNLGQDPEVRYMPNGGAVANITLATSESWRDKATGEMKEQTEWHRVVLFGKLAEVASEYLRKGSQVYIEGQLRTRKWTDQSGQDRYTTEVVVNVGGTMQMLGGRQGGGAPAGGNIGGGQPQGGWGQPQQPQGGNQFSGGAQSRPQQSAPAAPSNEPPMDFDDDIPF

| Structure (SMILES) | IC50 [1] [µM] | inhibition at 100 µM [1] [%] | EC50 [1] [µM] | inhibition at 10 µM [2, 5] [%] | inhibition at 10 µM [2, 6] [%] | Cell Viability (% @ 10 μM) [3] [%] | Cell viability (% viable) [3] [%] | DNA binding (%) [4] [%] | FID (SG) % Displaced @ 100 μM [4] [%] | EC50 [4] [µM] | EC50 ([2]; Hepatitis C virus, Huh7.5, HCV Rluc subgenomic replicon cells, read-out: concentration needed to reduce replicon-encoded luciferase by 50%) [µM] | combination of compound 24 and telaprevir on replicon expression ([2]; Rluc subgenomic HCV replicon cells) | loss of HCV replicon Rluc activity ([2]; elevated concentrations (>10 μM)) | toxicity at highest concentration tested ([3]; 50 μM) |
| --- | --- | --- | --- | --- | --- | --- | --- | --- | --- | --- | --- | --- | --- | --- |
| Cc1ccc2nc(-c3ccc4nc(-c5ccc(NC(=O)c6ccc(N(C)C)cc6)cc5)sc4c3)sc2c1S(=O)(=O)O [Compound 14, 2′-(4-(4-(dimethylamino)benzamido)phenyl)-6-methyl-[2,6′-bibenzo[d]thiazole]-7-sulfonic acid] | 4 ± 1 | 98 | 4 ± 1 | 22 ± 2 | 22 ± 2 | 94 ± 5 | 94 ± 5 | 44 ± 4 | 44 ± 4 | > 100 | – | – | – | – |
| Cc1ccc2nc(-c3ccc4nc(-c5ccc(NC(=O)c6cc(C(F)(F)F)cc(C(F)(F)F)c6)cc5)sc4c3)sc2c1S(=O)(=O)O [Compound 24, 2′-(4-(3,5-bis(trifluoromethyl)benzamido)phenyl)-6-methyl-[2,6′-bibenzo[d]thiazole]-7-sulfonic acid] | 36 ± 7 | 73 | 36 ± 7 | 60 ± 4 | 60 ± 4 | 122 ± 5 | 122 ± 5 | 43 ± 13 | 43 ± 13 | 86 ± 210 | 5 ± 2 | No synergy | more than 90% | not toxic |
| Cc1ccc2nc(-c3ccc4nc(-c5ccc(NC(=O)c6ccc(N)cc6)cc5)sc4c3)sc2c1S(=O)(=O)O [Compound 6, 2′-(4-(4-aminobenzamido)phenyl)-6-methyl-[2,6′-bibenzo[d]thiazole]-7-sulfonic acid] | 2 ± 1 | 99 | 3 ± 1 | 33 ± 1 | 33 ± 1 | 93 ± 4 | 93 ± 4 | 63 ± 15 | 63 ± 15 | 55 ± 13 | – | – | – | – |
